Measurements: PubChem BioAssay (NCI)
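The compound was tested at five concentrations on cells cultured in 96-well plates, with a 48-hour exposure period. GI50 is the concentration that inhibits growth by half. TGI denotes the concentration required for complete inhibition of growth.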

Assays:
Test in all cases: NCI-60 cell line screen, 48 h
A498 renal = tested on: A498 renal
A549 NSCLC = tested on: A549 NSCLC
CAKI-1 renal = tested on: CAKI-1 renal
CCRF-CEM leukemia = tested on: CCRF-CEM leukemia
HL-60(TB) leukemia = tested on: HL-60(TB) leukemia
IGROV1 ovarian = tested on: IGROV1 ovarian
M14 melanoma = tested on: M14 melanoma
OVCAR-8 ovarian = tested on: OVCAR-8 ovarian
UACC-257 melanoma = tested on: UACC-257 melanoma
EKVX NSCLC = tested on: EKVX NSCLC

Compound	GI50 (A498 renal)	TGI (A498 renal)	GI50 (A549 NSCLC)	TGI (A549 NSCLC)	GI50 (CAKI-1 renal)	TGI (CAKI-1 renal)	GI50 (CCRF-CEM leukemia)	TGI (CCRF-CEM leukemia)	GI50 (HL-60(TB) leukemia)	TGI (HL-60(TB) leukemia)	GI50 (IGROV1 ovarian)	TGI (IGROV1 ovarian)	GI50 (M14 melanoma)	TGI (M14 melanoma)	GI50 (OVCAR-8 ovarian)	TGI (OVCAR-8 ovarian)	GI50 (UACC-257 melanoma)	TGI (UACC-257 melanoma)	TGI (EKVX NSCLC)	GI50 (EKVX NSCLC)
NCCOCCOCCNc1nc(Cc2ccccc2)nc(NCCCN2CCCC2=O)n1	> 100 µM	> 100 µM	> 100 µM	> 100 µM	> 100 µM	> 100 µM	> 100 µM	> 100 µM	> 100 µM	> 100 µM	> 100 µM	> 100 µM	> 100 µM	> 100 µM	> 100 µM	> 100 µM	> 100 µM	> 100 µM		
CCCCCCCCCCC(C(=O)O)C1(C(=O)O)CCC(=O)O1 (stereo not given)				> 100 µM		> 100 µM		> 100 µM		> 100 µM		> 100 µM		> 100 µM		> 100 µM		> 100 µM	> 100 µM	
O=C(COc1ccc2c(=O)cc(-c3ccccc3)oc2c1)N1CCN(c2ccccc2)CC1				> 100 µM				> 100 µM		87.3 µM		> 100 µM		> 100 µM		> 100 µM		> 100 µM	> 100 µM	
Cc1ccc(C(=O)c2nnc(C(=O)c3ccc(C)cc3)nn2)cc1				> 100 µM		> 100 µM		50.8 µM		48.2 µM		> 100 µM		56.3 µM		> 100 µM		> 100 µM	> 100 µM	
O=C(O)/C=C\C(=O)N1C/C(=C\c2ccccc2Cl)C(=O)/C(=C/c2ccccc2Cl)C1			3.01 µM	13 µM	4.29 µM	15 µM	1.43 µM	6.66 µM	3.37 µM	11.8 µM	3.66 µM	11.2 µM	3.1 µM	10.6 µM	3.88 µM	17 µM	6.44 µM	20.4 µM	18.3 µM	5.24 µM
Nn1c(NNC(=O)C(=O)Nc2cc(Cl)c(Cl)cc2Cl)n[nH]c1=S		> 100 µM		> 100 µM		> 100 µM		> 100 µM				> 100 µM		> 100 µM		> 100 µM		> 100 µM	> 100 µM	
COC(C(=O)[O][Ge]([CH3])([CH3])[CH3])c1ccccc1 (stereo not given)	> 100 µM	> 100 µM	> 100 µM	> 100 µM	> 100 µM	> 100 µM	> 100 µM	> 100 µM			> 100 µM	> 100 µM	> 100 µM	> 100 µM	> 100 µM	> 100 µM	> 100 µM	> 100 µM	> 100 µM	> 100 µM
Cc1cc(N(CCCl)CCCl)ccc1C=Nc1ccc(-c2csc(Cc3ccccc3)n2)cc1	0.144 µM	1.13 µM	5.41 µM	> 62.4 µM	2.18 µM	30.5 µM	3.01 µM	> 86.3 µM	1.85 µM	> 46 µM	24.2 µM	> 100 µM	15.7 µM	58.6 µM	10.2 µM	46.2 µM	3.36 µM	29.3 µM		
COc1ccc(-c2ccc(/C=N/n3c(COc4ccc(Cl)cc4Cl)nn(CN4CCOCC4)c3=S)o2)c([N+](=O)[O-])c1			24.1 µM	> 100 µM	22.7 µM	67.4 µM	16.2 µM	43.8 µM	19.1 µM	41.1 µM			26 µM	72.6 µM					> 100 µM	> 100 µM
C=CCC[CH2][Sn]([c]1ccccc1)([c]1ccccc1)[c]1ccccc1			1.71 µM	3.54 µM	1.52 µM	3.18 µM	1.01 µM	4.37 µM	5.29 µM	> 100 µM	1.77 µM	3.35 µM	1.62 µM	3.09 µM	1.78 µM	3.28 µM	1.87 µM	3.33 µM	3.97 µM	1.89 µM
CC(=O)OCC1OC(OC2C(CSC3OC(COC(C)=O)C(OC(C)=O)C(OC(C)=O)C3OC(C)=O)OC(OC(C)=O)C(OC(C)=O)C2OC(C)=O)C(OC(C)=O)C(OC(C)=O)C1OC(C)=O (stereo not given)				> 100 µM		> 100 µM		> 100 µM				> 100 µM		> 100 µM		> 100 µM			> 100 µM	
COc1ccc(OC)c(/C=C2\SC(=S)NC2=O)c1			26 µM	89.9 µM	21.9 µM	61.4 µM	42.4 µM	> 100 µM	58 µM	> 100 µM	31.2 µM	> 100 µM	30.7 µM	> 100 µM	30.5 µM	> 100 µM	19.8 µM	61.5 µM	42.1 µM	14.2 µM
CCOc1ccc(NC(=O)C(=O)CC(=O)C2=C(C)Nc3ccccc3S2)cc1		> 50 µM		> 50 µM		> 50 µM		> 50 µM				> 50 µM		> 50 µM		> 50 µM		> 50 µM	> 50 µM	
N#Cc1c(N2CCCC2)[nH]c(=O)c(C(c2c(Cl)cccc2Cl)c2c(O)c(C#N)c(N3CCCC3)[nH]c2=O)c1O			18.8 µM	36 µM	10.7 µM	24 µM	1.91 µM	5.06 µM			19 µM	56.5 µM	11.4 µM	24 µM	15.8 µM	33.1 µM	12.4 µM	26.7 µM	17.1 µM	0.0367 µM
COc1ccc(OC)c(NC(=O)C2=C(C)NC(C)=C(C(=O)Nc3cc(OC)ccc3OC)C2c2ccccc2)c1		> 100 µM		> 100 µM		> 100 µM		> 100 µM				> 100 µM		> 100 µM		> 100 µM		> 100 µM	> 100 µM	
CSc1ccc(C2OC(=O)c3ccccc32)c2ccccc12 (stereo not given)				> 100 µM		> 100 µM		> 100 µM		> 100 µM		> 100 µM		> 100 µM		> 100 µM		> 100 µM	> 100 µM	
COc1cc2c(c(OC)c1)C1c3ccccc3NC(=O)N1CC2 (stereo not given)			4.59 µM	> 100 µM	4.62 µM	> 100 µM	2.67 µM	> 100 µM	2.12 µM	5.56 µM	7.71 µM	> 100 µM	1.97 µM	21.4 µM	5.01 µM	> 100 µM	51 µM	> 100 µM	> 100 µM	4.79 µM
CC(C)[C@H]1CO[C@]2(C)[C@@H]3CN(Cc4ccccc4)C[C@@H]3C(=O)N12				> 100 µM		> 100 µM		> 100 µM		> 100 µM		> 100 µM		> 100 µM		> 100 µM		> 100 µM	> 100 µM	
CCCCCCCCCCCC(=O)OCC1OC(n2cc(F)c(=O)[nH]c2=O)C(NC(=O)OCc2ccccc2)C(OC(=O)CCCCCCCCCCC)C1O (stereo not given)		> 100 µM		> 100 µM		> 100 µM		> 100 µM				> 100 µM		> 100 µM		> 100 µM		> 100 µM	> 100 µM	
CCCCCCCCCCCCCCCCN1CC2CCCCC2C1 (stereo not given)	16.2 µM	30.6 µM	4.09 µM	17 µM	2.49 µM	8.91 µM	2.43 µM	6.56 µM			3.58 µM	12.2 µM	2.93 µM	9.22 µM	4.18 µM	17.6 µM	12.6 µM	27 µM	21.8 µM	9.19 µM
COc1ccc2nc(-c3cccs3)cc(C(O)CN3CCSCC3)c2c1 (stereo not given)				> 100 µM		> 100 µM		44.9 µM		5.8 µM		> 100 µM		40.6 µM		57.8 µM		63.7 µM	97.1 µM	
COC(=O)[C@@]1(C)CC[C@]2(C)CC[C@]3(C)C4=CC=C5C(=CC(=O)C(O)=C5C)[C@]4(C)[C@@H](O)C[C@@]3(C)[C@@H]2C1			15.9 µM	30.1 µM	3.94 µM	13.9 µM	2.73 µM	11.9 µM	9.68 µM	28.9 µM	6.73 µM	19.1 µM	9.74 µM	22.2 µM	14.8 µM	28.4 µM	10.1 µM	24.3 µM	25.2 µM	12.9 µM
Nc1ccccc1C#C/C=C\C#Cc1cccs1			10.4 µM	> 42.5 µM	3.75 µM	21 µM	0.295 µM	2.2 µM	0.696 µM	12.3 µM	6.36 µM	> 39.6 µM	10.5 µM	30.9 µM	25 µM	> 83.4 µM	23.2 µM	> 57.8 µM	35.1 µM	12.7 µM
CCCCC(CC)CN=C(N)NC(N)=NCCCCCCN=C(N)NC(N)=NCC(CC)CCCC (stereo not given)					2.93 µM	10.3 µM			2.07 µM	3.97 µM			2.49 µM	6.03 µM	2.08 µM	5.19 µM	2.62 µM	8.73 µM	4.73 µM	1.74 µM
C#CCOCn1cnc2c(Cl)ncnc21		> 100 µM		> 100 µM		> 100 µM		> 100 µM				> 100 µM		> 100 µM		> 100 µM		> 100 µM	> 100 µM	
